According to the supplement of paper PMC10307832:

Assays:
Test in all cases: relative viability (nuclei count vs DMSO), 5 days (fraction); higher = more cells survive
NCI-H1648 = test system: NCI-H1648
Summary of the method: (§1)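 Each reported value is a median over duplicate plates. It expresses relative viability: treated-well nuclei count divided by vehicle-well nuclei count. Lung cancer cell lines in 1536-well plates were dosed by pin tool a day after seeding, alone with one drug or with a fixed anchor-drug dose plus five library-drug doses (not always all listed) in √10 steps, and nuclei were counted after 5 days.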

NCI-H1666 = test system: NCI-H1666
Summary of the method: as §1

NCI-H1944 = test system: NCI-H1944
Summary of the method: as §1

NCI-H596 = test system: NCI-H596
Summary of the method: as §1

NCI-H661 = test system: NCI-H661
Summary of the method: as §1

PC-14 = test system: PC-14
Summary of the method: as §1

SK-LU-1 = test system: SK-LU-1
Summary of the method: as §1

In the case of `Cc1csc(=NC2CCCCC2)n1/N=C/c1ccc(O)c(O)c1O` [MIM1] + Nc1nc2[nH]cc(CCc3ccc(C(=O)N[C@@H](CCC(=O)O)C(=O)O)cc3)c2c(=O)[nH]1 [Pemetrexed] (partner 0.2 µM), the relative viability (NCI-H1648; first compound 0.2 µM) is reported as 0.874, the relative viability (NCI-H1648; first compound 0.6325 µM) is reported as 0.688 and the relative viability (NCI-H1648; first compound 2 µM) is reported as 0.584. For the same molecule, the relative viability (NCI-H1648; first compound 6.325 µM) was 0.544, the relative viability (NCI-H1648; first compound 20 µM) was 0.455 and the relative viability (NCI-H1666; first compound 0.2 µM) was 0.853. It also gave a relative viability (NCI-H1666; first compound 0.6325 µM) of 0.848, a relative viability (NCI-H1666; first compound 2 µM) of 0.826 and a relative viability (NCI-H1666; first compound 6.325 µM) of 0.666. It also gave a relative viability (NCI-H1666; first compound 20 µM) of 0.627, a relative viability (NCI-H1944; first compound 0.2 µM) of 0.586 and a relative viability (NCI-H1944; first compound 0.6325 µM) of 0.613. The relative viability (NCI-H1944; first compound 2 µM) was 0.478, the relative viability (NCI-H1944; first compound 6.325 µM) was 0.381 and the relative viability (NCI-H1944; first compound 20 µM) was 0.233. For the same molecule, the relative viability (NCI-H596; first compound 0.2 µM) was 0.608, the relative viability (NCI-H596; first compound 0.6325 µM) was 0.537 and the relative viability (NCI-H596; first compound 2 µM) was 0.536. For the same molecule, the relative viability (NCI-H596; first compound 6.325 µM) was 0.512, the relative viability (NCI-H596; first compound 20 µM) was 0.471 and the relative viability (NCI-H661; first compound 0.2 µM) was 0.676. The relative viability (NCI-H661; first compound 0.6325 µM) was 0.908, the relative viability (NCI-H661; first compound 2 µM) was 0.975 and the relative viability (NCI-H661; first compound 6.325 µM) was 0.651. It also gave a relative viability (NCI-H661; first compound 20 µM) of 0.562, a relative viability (PC-14; first compound 0.2 µM) of 0.137 and a relative viability (PC-14; first compound 0.6325 µM) of 0.124. The relative viability (PC-14; first compound 2 µM) was 0.151, the relative viability (PC-14; first compound 6.325 µM) was 0.156 and the relative viability (PC-14; first compound 20 µM) was 0.111. For the same molecule, the relative viability (SK-LU-1; first compound 0.2 µM) was 0.995, the relative viability (SK-LU-1; first compound 0.6325 µM) was 1.09 and the relative viability (SK-LU-1; first compound 2 µM) was 0.972. It also gave a relative viability (SK-LU-1; first compound 6.325 µM) of 0.892 and a relative viability (SK-LU-1; first compound 20 µM) of 0.694.
`Cc1cn(-c2cc(NC(=O)c3ccc(C)c(Nc4nccc(-c5cccnc5)n4)c3)cc(C(F)(F)F)c2)cn1` [Nilotinib] + CC(=O)Nc1cccc(-n2c(=O)n(C3CC3)c(=O)c3c(Nc4ccc(I)cc4F)n(C)c(=O)c(C)c32)c1 [Trametinib] (partner 0.02 µM) gave a relative viability (NCI-H1648; first compound 0.001 µM) of 0.436, a relative viability (NCI-H1648; first compound 0.003162 µM) of 0.434 and a relative viability (NCI-H1648; first compound 0.01 µM) of 0.44. For the same molecule, the relative viability (NCI-H1648; first compound 0.03162 µM) was 0.331, the relative viability (NCI-H1648; first compound 0.1 µM) was 0.329 and the relative viability (NCI-H1666; first compound 0.001 µM) was 0.843. For the same molecule, the relative viability (NCI-H1666; first compound 0.003162 µM) was 0.689, the relative viability (NCI-H1666; first compound 0.01 µM) was 0.638 and the relative viability (NCI-H1666; first compound 0.03162 µM) was 0.766. It also gave a relative viability (NCI-H1666; first compound 0.1 µM) of 0.746, a relative viability (NCI-H1944; first compound 0.001 µM) of 0.378 and a relative viability (NCI-H1944; first compound 0.003162 µM) of 0.415. The relative viability (NCI-H1944; first compound 0.01 µM) was 0.39, the relative viability (NCI-H1944; first compound 0.03162 µM) was 0.383 and the relative viability (NCI-H1944; first compound 0.1 µM) was 0.322. It also gave a relative viability (NCI-H596; first compound 0.001 µM) of 0.67, a relative viability (NCI-H596; first compound 0.003162 µM) of 0.883 and a relative viability (NCI-H596; first compound 0.01 µM) of 0.905. It also gave a relative viability (NCI-H596; first compound 0.03162 µM) of 0.668, a relative viability (NCI-H596; first compound 0.1 µM) of 0.712 and a relative viability (NCI-H661; first compound 0.001 µM) of 0.49. The relative viability (NCI-H661; first compound 0.003162 µM) was 0.593, the relative viability (NCI-H661; first compound 0.01 µM) was 0.606 and the relative viability (NCI-H661; first compound 0.03162 µM) was 0.407. It also gave a relative viability (NCI-H661; first compound 0.1 µM) of 0.367, a relative viability (PC-14; first compound 0.001 µM) of 0.671 and a relative viability (PC-14; first compound 0.003162 µM) of 1.14. It also gave a relative viability (PC-14; first compound 0.01 µM) of 0.708, a relative viability (PC-14; first compound 0.03162 µM) of 0.448 and a relative viability (PC-14; first compound 0.1 µM) of 0.526. It also gave a relative viability (SK-LU-1; first compound 0.001 µM) of 0.436, a relative viability (SK-LU-1; first compound 0.003162 µM) of 0.475 and a relative viability (SK-LU-1; first compound 0.01 µM) of 0.371. For the same molecule, the relative viability (SK-LU-1; first compound 0.03162 µM) was 0.361 and the relative viability (SK-LU-1; first compound 0.1 µM) was 0.385.
`Cc1cn(-c2cc(NC(=O)c3ccc(C)c(Nc4nccc(-c5cccnc5)n4)c3)cc(C(F)(F)F)c2)cn1` [Nilotinib] + CC(=O)c1c(C)c2cnc(Nc3ccc(N4CCNCC4)cn3)nc2n(C2CCCC2)c1=O [Palbociclib] (partner 0.5 µM) showed a relative viability (NCI-H1648; first compound 0.001 µM) of 0.244, a relative viability (NCI-H1648; first compound 0.003162 µM) of 0.319 and a relative viability (NCI-H1648; first compound 0.01 µM) of 0.294. The relative viability (NCI-H1648; first compound 0.03162 µM) was 0.254, the relative viability (NCI-H1648; first compound 0.1 µM) was 0.268 and the relative viability (NCI-H1666; first compound 0.001 µM) was 0.62. The relative viability (NCI-H1666; first compound 0.003162 µM) was 0.673, the relative viability (NCI-H1666; first compound 0.01 µM) was 0.588 and the relative viability (NCI-H1666; first compound 0.03162 µM) was 0.583. For the same molecule, the relative viability (NCI-H1666; first compound 0.1 µM) was 0.65, the relative viability (NCI-H1944; first compound 0.001 µM) was 0.279 and the relative viability (NCI-H1944; first compound 0.003162 µM) was 0.335. For the same molecule, the relative viability (NCI-H1944; first compound 0.01 µM) was 0.372, the relative viability (NCI-H1944; first compound 0.03162 µM) was 0.365 and the relative viability (NCI-H1944; first compound 0.1 µM) was 0.378. It also gave a relative viability (NCI-H661; first compound 0.001 µM) of 0.438, a relative viability (NCI-H661; first compound 0.003162 µM) of 0.396 and a relative viability (NCI-H661; first compound 0.01 µM) of 0.404. For the same molecule, the relative viability (NCI-H661; first compound 0.03162 µM) was 0.444, the relative viability (NCI-H661; first compound 0.1 µM) was 0.361 and the relative viability (PC-14; first compound 0.001 µM) was 0.45. The relative viability (PC-14; first compound 0.003162 µM) was 0.741, the relative viability (PC-14; first compound 0.01 µM) was 0.666 and the relative viability (PC-14; first compound 0.03162 µM) was 0.426. The relative viability (PC-14; first compound 0.1 µM) was 0.713, the relative viability (SK-LU-1; first compound 0.001 µM) was 0.355 and the relative viability (SK-LU-1; first compound 0.003162 µM) was 0.334. It also gave a relative viability (SK-LU-1; first compound 0.01 µM) of 0.405, a relative viability (SK-LU-1; first compound 0.03162 µM) of 0.311 and a relative viability (SK-LU-1; first compound 0.1 µM) of 0.335.
